Consider one compound from patent US20130165455A1, “TLR AGONISTS” (The Regents of The University of California, priority 2005, published 2013).

The structures appear in SMILES notation.

For the test, the system named is C57BL/6 mice. The test is described as follows: Serum cytokine levels in C57BL/6 mice after i.v. injection (Luminex). It is filed as in vivo. As to conditions: 0.1 micromole SM-360320 or equivalent amount UC-1V150/MSA (500 μg MSA per mouse), FIG. 5. On the procedure:
FIGS. 5A, 5B, 5C, and 5D illustrate the increased potency and duration of effect of UC-1V150/MSA. C57BL/6 mice were injected (i.v.) with (A) 0.1 micromole of SM-360320, a TLR7 ligand, or (B) equivalent amount of a TLR7 agonist UC-1V150 (aldehyde-modified SM-360320) or UC-1V150/MSA to 500 μg MSA per mouse. Serum samples were collected at the indicated time points and cytokine levels were analyzed by Luminex. MSA=mouse serum albumin. The effect from the original TLR7 ligand, SM-360320, lasted for only 2 hours whereas UC-1V150/MSA has extended the effect to at least 6 hours.
FIGS. 7A and 7B illustrates an increased potency of UC-1V150/MSA. C57BL/6 mice were i.v. injected with 380 nmole of SM-360320 or UC-1V150, or 500 μg of UC-1V150/MSA (equivalent to 3.8 nmole UC-1V150) per mouse. Serum samples were collected after 2 h and cytokine levels were analyzed by Luminex. To achieve the similar effect, at least 100-fold higher concentration of either UC-1V150 or SM-360320 was required as compared to that of UC-1V150/MSA.

For the compound `COCCOc1nc(N)c2[nH]c(=O)n(Cc3ccccc3)c2n1` [SM-360320], the “duration of effect (serum cytokine levels)” value is 2 h.
